# Test results as given in patent publication US6794386B2, “β-amino acid compounds as integrin antagonists” (Bayer Aktiengesellschaft, priority 2000, dated 2004).
# Target: T1, VLA-4 (Homo sapiens, UniProt P05556+P13612)
# T1 construct: host or cells: Jurkat clone E6-1
# Test: Adhesion of Jurkat cells to immobilized VCAM-1 (domains 1-3)
# Type: cell-based
# Design: scale not given here
# Settings: adhesion of CFSE-labeled Jurkat cells to recombinant human VCAM-1 (domains 1-3) coated plates; compounds as yielded by solid phase synthesis, purity about 40-90%
# Method in brief: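 CFSE-labelled Jurkat E6-1 cells in Tris buffer pH 7.4 with 2 mM MnCl2 were added to wells coated with insect-cell-expressed human VCAM-1 domains 1-3 (0.5 μg/ml coating solution); labelled cells were incubated for 30 min at 37 °C with the VLA-4 inhibitor.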
# T1 sequence (P13612 34-1032): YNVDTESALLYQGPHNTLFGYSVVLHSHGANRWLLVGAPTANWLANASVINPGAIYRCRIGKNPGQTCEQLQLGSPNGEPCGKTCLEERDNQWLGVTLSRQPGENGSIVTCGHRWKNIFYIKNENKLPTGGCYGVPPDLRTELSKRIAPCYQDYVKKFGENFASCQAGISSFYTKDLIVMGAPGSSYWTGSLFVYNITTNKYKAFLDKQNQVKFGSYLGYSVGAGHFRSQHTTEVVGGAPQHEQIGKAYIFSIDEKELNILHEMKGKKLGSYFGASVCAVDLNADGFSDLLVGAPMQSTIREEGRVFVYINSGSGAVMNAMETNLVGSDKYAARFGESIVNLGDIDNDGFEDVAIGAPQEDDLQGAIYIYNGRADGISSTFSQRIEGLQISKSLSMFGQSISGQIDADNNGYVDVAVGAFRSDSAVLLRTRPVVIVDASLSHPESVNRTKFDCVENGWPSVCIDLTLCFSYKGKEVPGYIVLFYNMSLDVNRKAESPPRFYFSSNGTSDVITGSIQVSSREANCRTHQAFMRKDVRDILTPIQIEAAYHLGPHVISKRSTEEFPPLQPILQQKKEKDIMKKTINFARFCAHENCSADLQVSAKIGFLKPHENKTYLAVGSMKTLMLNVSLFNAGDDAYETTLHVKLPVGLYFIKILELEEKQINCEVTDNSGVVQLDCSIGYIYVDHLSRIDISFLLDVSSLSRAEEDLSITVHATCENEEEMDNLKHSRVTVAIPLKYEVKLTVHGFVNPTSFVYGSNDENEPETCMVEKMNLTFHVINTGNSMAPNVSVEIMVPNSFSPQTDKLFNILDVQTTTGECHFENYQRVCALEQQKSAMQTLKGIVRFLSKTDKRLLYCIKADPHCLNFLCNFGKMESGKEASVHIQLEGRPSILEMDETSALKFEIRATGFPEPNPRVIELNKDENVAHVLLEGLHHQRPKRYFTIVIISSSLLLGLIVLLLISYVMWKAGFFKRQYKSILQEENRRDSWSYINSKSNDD
# T1 sequence (P05556 21-798): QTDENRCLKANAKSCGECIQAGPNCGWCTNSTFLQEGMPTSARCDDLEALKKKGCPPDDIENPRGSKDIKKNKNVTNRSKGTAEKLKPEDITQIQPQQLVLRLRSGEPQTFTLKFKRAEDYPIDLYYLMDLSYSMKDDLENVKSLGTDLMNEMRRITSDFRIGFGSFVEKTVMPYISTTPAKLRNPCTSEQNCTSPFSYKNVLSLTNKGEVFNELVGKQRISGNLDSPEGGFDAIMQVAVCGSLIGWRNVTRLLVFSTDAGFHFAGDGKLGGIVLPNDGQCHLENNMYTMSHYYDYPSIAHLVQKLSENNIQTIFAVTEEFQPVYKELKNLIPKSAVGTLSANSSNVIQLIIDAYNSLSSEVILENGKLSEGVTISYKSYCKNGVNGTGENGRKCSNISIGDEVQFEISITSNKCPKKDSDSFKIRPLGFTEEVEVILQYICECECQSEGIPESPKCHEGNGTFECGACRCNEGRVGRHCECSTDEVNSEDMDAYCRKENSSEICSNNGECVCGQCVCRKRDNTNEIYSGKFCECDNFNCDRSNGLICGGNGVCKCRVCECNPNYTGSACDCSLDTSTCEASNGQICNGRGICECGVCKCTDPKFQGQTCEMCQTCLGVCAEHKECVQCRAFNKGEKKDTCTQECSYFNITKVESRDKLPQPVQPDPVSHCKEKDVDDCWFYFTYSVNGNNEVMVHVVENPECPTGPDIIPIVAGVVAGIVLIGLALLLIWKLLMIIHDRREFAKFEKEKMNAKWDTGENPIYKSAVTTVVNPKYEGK
row,IC50,SMILES
1,C-D,COc1ccc(-c2ccc(C[C@H](NC(=O)C3CCCN(c4ncnc(N5CCCCC5)c4F)C3)C(=O)O)cc2)cc1 (stereo partly shown) [Example 2.16]
2,C-D,COc1ccc(-c2ccc(C[C@H](NC(=O)C3CCCN(c4ncnc(N5CCOCC5)c4F)C3)C(=O)O)cc2)cc1 (stereo partly shown) [Example 2.17]
3,C-D,COc1ccc(-c2ccc(C[C@H](NC(=O)C3CCCN(c4ncnc(N(C)Cc5ccccc5)c4F)C3)C(=O)O)cc2)cc1 (stereo partly shown) [Example 2.18]
4,C-D,COc1ccc(-c2ccc(C[C@H](NC(=O)C3CCCN(c4ncnc(N5CCNCC5)c4F)C3)C(=O)O)cc2)cc1 (stereo partly shown) [Example 2.19]
5,C-D,CCCNc1ncnc(N2CCCC(C(=O)N[C@@H](Cc3ccc(-c4ccc(OC)cc4)cc3)C(=O)O)C2)c1F (stereo partly shown) [Example 2.20]
6,C-D,COc1ccc(-c2ccc(C[C@H](NC(=O)C3CCCN(c4ncnc(NC5Cc6ccccc6C5)c4F)C3)C(=O)O)cc2)cc1 (stereo partly shown) [Example 2.21]
7,C-D,COc1ccc(-c2ccc(C[C@H](NC(=O)C3CCCN(c4ncnc(NCCN5CCCC5)c4F)C3)C(=O)O)cc2)cc1 (stereo partly shown) [Example 2.22]
8,C-D,CCCCN(C)c1ncnc(N2CCCC(C(=O)N[C@@H](Cc3ccc(-c4ccc(OC)cc4)cc3)C(=O)O)C2)c1F (stereo partly shown) [Example 2.23]
9,C-D,Cc1ccccc1-c1ccc(C[C@H](NC(=O)C2CCCN(c3ncnc(NCc4ccccn4)c3F)C2)C(=O)O)cc1 (stereo partly shown) [Example 2.24]
10,C-D,Cc1ccccc1-c1ccc(C[C@H](NC(=O)C2CCCN(c3ncnc(NC4CCCCC4)c3F)C2)C(=O)O)cc1 (stereo partly shown) [Example 2.25]
11,C-D,Cc1ccccc1-c1ccc(C[C@H](NC(=O)C2CCCN(c3ncnc(N4CCCCC4)c3F)C2)C(=O)O)cc1 (stereo partly shown) [Example 2.26]
12,C-D,Cc1ccccc1-c1ccc(C[C@H](NC(=O)C2CCCN(c3ncnc(N4CCOCC4)c3F)C2)C(=O)O)cc1 (stereo partly shown) [Example 2.27]
13,C-D,Cc1ccccc1-c1ccc(C[C@H](NC(=O)C2CCCN(c3ncnc(N(C)Cc4ccccc4)c3F)C2)C(=O)O)cc1 (stereo partly shown) [Example 2.28]
14,C-D,Cc1ccccc1-c1ccc(C[C@H](NC(=O)C2CCCN(c3ncnc(N4CCNCC4)c3F)C2)C(=O)O)cc1 (stereo partly shown) [Example 2.29]
15,C-D,Cc1ccccc1-c1ccc(C[C@H](NC(=O)C2CCCN(c3ncnc(NC4Cc5ccccc5C4)c3F)C2)C(=O)O)cc1 (stereo partly shown) [Example 2.31]
16,C-D,Cc1ccccc1-c1ccc(C[C@H](NC(=O)C2CCCN(c3ncnc(NCCN4CCCC4)c3F)C2)C(=O)O)cc1 (stereo partly shown) [Example 2.32]
17,C-D,CCCCN(C)c1ncnc(N2CCCC(C(=O)N[C@@H](Cc3ccc(-c4ccccc4C)cc3)C(=O)O)C2)c1F (stereo partly shown) [Example 2.33]

row,IC50,SMILES
1,C-D,O=C(N[C@@H](Cc1ccc(-c2cc(Cl)ccc2Cl)cc1)C(=O)O)C1CCCN(c2ncnc(N3CCCCC3)c2F)C1 (stereo partly shown) [Example 2.35]
2,C-D,CN(Cc1ccccc1)c1ncnc(N2CCCC(C(=O)N[C@@H](Cc3ccc(-c4cc(Cl)ccc4Cl)cc3)C(=O)O)C2)c1F (stereo partly shown) [Example 2.36]
3,C-D,CCCNc1ncnc(N2CCCC(C(=O)N[C@@H](Cc3ccc(-c4cc(Cl)ccc4Cl)cc3)C(=O)O)C2)c1F (stereo partly shown) [Example 2.37]
4,C-D,O=C(N[C@@H](Cc1ccc(-c2cc(Cl)ccc2Cl)cc1)C(=O)O)C1CCCN(c2ncnc(NC3Cc4ccccc4C3)c2F)C1 (stereo partly shown) [Example 2.38]
5,A-B,CCCCN(C)c1ncnc(N2CCCC(C(=O)N[C@@H](Cc3ccc(-c4cc(Cl)ccc4Cl)cc3)C(=O)O)C2)c1F (stereo partly shown) [Example 2.40]
6,C-D,O=C(N[C@@H](Cc1ccc(-c2ccc(Cl)c(Cl)c2)cc1)C(=O)O)C1CCCN(c2ncnc(NCc3ccccn3)c2F)C1 (stereo partly shown) [Example 2.41]
7,C-D,O=C(N[C@@H](Cc1ccc(-c2ccc(Cl)c(Cl)c2)cc1)C(=O)O)C1CCCN(c2ncnc(NC3CCCCC3)c2F)C1 (stereo partly shown) [Example 2.42]
8,C-D,O=C(N[C@@H](Cc1ccc(-c2ccc(Cl)c(Cl)c2)cc1)C(=O)O)C1CCCN(c2ncnc(N3CCCCC3)c2F)C1 (stereo partly shown) [Example 2.43]
9,C-D,O=C(N[C@@H](Cc1ccc(-c2ccc(Cl)c(Cl)c2)cc1)C(=O)O)C1CCCN(c2ncnc(N3CCOCC3)c2F)C1 (stereo partly shown) [Example 2.44]
10,C-D,CN(Cc1ccccc1)c1ncnc(N2CCCC(C(=O)N[C@@H](Cc3ccc(-c4ccc(Cl)c(Cl)c4)cc3)C(=O)O)C2)c1F (stereo partly shown) [Example 2.45]
11,C-D,O=C(N[C@@H](Cc1ccc(-c2ccc(Cl)c(Cl)c2)cc1)C(=O)O)C1CCCN(c2ncnc(N3CCNCC3)c2F)C1 (stereo partly shown) [Example 2.46]
12,C-D,CCCNc1ncnc(N2CCCC(C(=O)N[C@@H](Cc3ccc(-c4ccc(Cl)c(Cl)c4)cc3)C(=O)O)C2)c1F (stereo partly shown) [Example 2.47]
13,C-D,O=C(N[C@@H](Cc1ccc(-c2ccc(Cl)c(Cl)c2)cc1)C(=O)O)C1CCCN(c2ncnc(NC3Cc4ccccc4C3)c2F)C1 (stereo partly shown) [Example 2.48]
14,C-D,O=C(N[C@@H](Cc1ccc(-c2ccc(Cl)c(Cl)c2)cc1)C(=O)O)C1CCCN(c2ncnc(NCCN3CCCC3)c2F)C1 (stereo partly shown) [Example 2.49]
15,C-D,CCCCN(C)c1ncnc(N2CCCC(C(=O)N[C@@H](Cc3ccc(-c4ccc(Cl)c(Cl)c4)cc3)C(=O)O)C2)c1F (stereo partly shown) [Example 2.50]
16,C-D,COc1ccccc1-c1ccc(C[C@H](NC(=O)C2CCCN(c3ncnc(N4CCCCC4)c3F)C2)C(=O)O)cc1 (stereo partly shown) [Example 2.52]
17,B-C,COc1ccccc1-c1ccc(C[C@H](NC(=O)C2CCCN(c3ncnc(NC4Cc5ccccc5C4)c3F)C2)C(=O)O)cc1 (stereo partly shown) [Example 2.56]

# Same assay, conditions: adhesion of CFSE-labeled Jurkat cells to recombinant human VCAM-1 (domains 1-3) coated plates; compounds as yielded by solid phase synthesis, purity about 40-90%; read-out: IC50
row,IC50 [nM],SMILES
1,2000 to 10000,CCCNc1ncnc(N2CCCC(C(=O)N[C@@H](Cc3ccc(-c4ccccc4C)cc3)C(=O)O)C2)c1F (stereo partly shown) [Example 2.30]
2,2000 to 10000,O=C(N[C@@H](Cc1ccc(-c2cc(Cl)ccc2Cl)cc1)C(=O)O)C1CCCN(c2ncnc(NC3CCCCC3)c2F)C1 (stereo partly shown) [Example 2.34]
3,500 to 2000,O=C(N[C@@H](Cc1ccc(-c2cc(Cl)ccc2Cl)cc1)C(=O)O)C1CCCN(c2ncnc(NCCN3CCCC3)c2F)C1 (stereo partly shown) [Example 2.39]
4,500 to 2000,COc1ccccc1-c1ccc(C[C@H](NC(=O)C2CCCN(c3ncnc(NCc4ccccn4)c3F)C2)C(=O)O)cc1 (stereo partly shown) [Example 2.51]
5,2000 to 10000,COc1ccccc1-c1ccc(C[C@H](NC(=O)C2CCCN(c3ncnc(N4CCOCC4)c3F)C2)C(=O)O)cc1 (stereo partly shown) [Example 2.53]
6,≤ 500,COc1ccccc1-c1ccc(C[C@H](NC(=O)C2CCCN(c3ncnc(N4CCNCC4)c3F)C2)C(=O)O)cc1 (stereo partly shown) [Example 2.54]
7,≤ 500,CCCNc1ncnc(N2CCCC(C(=O)N[C@@H](Cc3ccc(-c4ccccc4OC)cc3)C(=O)O)C2)c1F (stereo partly shown) [Example 2.55]
8,≤ 500,CN1CCN(C(=O)Nc2ccc(C[C@H](NC(=O)C3CCCN(C(=O)Cc4cccs4)C3)C(=O)O)cc2)CC1 (stereo partly shown) [Example 4.2]
9,500 to 2000,CN1CCN(C(=O)Nc2ccc(C[C@H](NC(=O)C3CCCN(C(=O)c4ccc(OC(F)(F)F)cc4)C3)C(=O)O)cc2)CC1 (stereo partly shown) [Example 4.3]
10,2000 to 10000,O=C(N[C@@H](Cc1ccc(NC(=O)N2CCCCC2)cc1)C(=O)O)C1CCCN(C(=O)c2ccc(OC(F)(F)F)cc2)C1 (stereo partly shown) [Example 4.4]
11,500 to 2000,CN1CCN(C(=O)Nc2ccc(C[C@H](NC(=O)C3CCCN(S(C)(=O)=O)C3)C(=O)O)cc2)CC1 (stereo partly shown) [Example 4.5]
12,≤ 500,COc1ccc(S(=O)(=O)N2CCCC(C(=O)N[C@@H](Cc3ccc(NC(=O)N4CCN(C)CC4)cc3)C(=O)O)C2)cc1OC (stereo partly shown) [Example 4.6]
13,500 to 2000,O=C(N[C@@H](Cc1ccc(NC(=O)N2CCCCC2)cc1)C(=O)O)C1CCCN(S(=O)(=O)Cc2ccccc2)C1 (stereo partly shown) [Example 4.7]
14,2000 to 10000,O=C(N[C@@H](Cc1ccc(NC(=O)N2CCN(c3ccccc3)CC2)cc1)C(=O)O)C1CCCN(C(=O)c2ccc(OC(F)(F)F)cc2)C1 (stereo partly shown) [Example 4.8]
15,≤ 500,O=C(N[C@@H](Cc1ccc(NC(=O)N2CCc3ccccc3C2)cc1)C(=O)O)C1CCCN(C(=O)Cc2cccs2)C1 (stereo partly shown) [Example 4.9]
16,≤ 500,O=C(N[C@@H](Cc1ccc(NC(=O)N2CCN(C(c3ccccc3)c3ccccc3)CC2)cc1)C(=O)O)C1CCCN(C(=O)Cc2cccs2)C1 (stereo partly shown) [Example 4.10]
17,≤ 500,Cc1ccc(S(=O)(=O)N2CCCC(C(=O)N[C@@H](Cc3ccc(NC(=O)N4CCN(C)CC4)cc3)C(=O)O)C2)cc1 (stereo partly shown) [Example 4.11]
18,≤ 500,COc1ccccc1C(=O)N1CCCC(C(=O)N[C@@H](Cc2ccc(NC(=O)N3CCCCC3)cc2)C(=O)O)C1 (stereo partly shown) [Example 4.12]
19,500 to 2000,O=C(N[C@@H](Cc1ccc(NC(=O)N2CCOCC2)cc1)C(=O)O)C1CCCN(C(=O)c2ccc(OC(F)(F)F)cc2)C1 (stereo partly shown) [Example 4.13]
20,≤ 500,COc1ccccc1C(=O)N1CCCC(C(=O)N[C@@H](Cc2ccc(NC(=O)N3CCN(c4ccccc4)CC3)cc2)C(=O)O)C1 (stereo partly shown) [Example 4.14]
21,500 to 2000,COc1ccccc1C(=O)N1CCCC(C(=O)N[C@@H](Cc2ccc(NC(=O)NCC(c3ccccc3)c3ccccc3)cc2)C(=O)O)C1 (stereo partly shown) [Example 4.15]
22,≤ 500,CN1CCN(C(=O)Nc2ccc(C[C@H](NC(=O)C3CCCN(S(=O)(=O)c4ccc5ccccc5c4)C3)C(=O)O)cc2)CC1 (stereo partly shown) [Example 4.16]
23,500 to 2000,O=C(N[C@@H](Cc1ccc(NC(=O)N2CCOCC2)cc1)C(=O)O)C1CCCN(C(=O)OCc2ccccc2)C1 (stereo partly shown) [Example 4.17]
24,≤ 500,O=C(N[C@@H](Cc1ccc(NC(=O)N2CCN(c3ccccc3)CC2)cc1)C(=O)O)C1CCCN(C(=O)Cc2cccs2)C1 (stereo partly shown) [Example 4.18]
25,2000 to 10000,O=C(N[C@H](Cc1ccc(NC(=O)N2CCc3ccccc3C2)cc1)C(=O)O)C1CCCN(C(=O)c2ccc(OC(F)(F)F)cc2)C1 (stereo partly shown) [Example 4.20]
26,500 to 2000,O=C(N[C@@H](Cc1ccc(NC(=O)N2CCOCC2)cc1)C(=O)O)C1CCCN(C(=O)Cc2ccccc2)C1 (stereo partly shown) [Example 4.21]

row,SMILES,IC50 [nM]
1,COc1ccc(OC(=O)N2CCCC(C(=O)N[C@@H](Cc3ccc(NC(=O)N4CCN(c5ccccc5)CC4)cc3)C(=O)O)C2)cc1 (stereo partly shown) [Example 4.19],2000 to 10000
